Measurements as given in patent US20110033560A1, “PREPARATION AND A COMPONENT INTENDED TO BE ADDED TO A TOBACCO PRODUCT” (BIOHIT OYJ, priority 2007, published 2011).

Legend:
Format in all cases: in vivo, human
[1] = Salivary acetaldehyde after alcohol with slow-release buccal tablet (Example 10); settings: buccal tablet 100 mg, alcohol 0.8 g/kg, every 20 min up to 320 min, FIG. 10
Description: The testees enjoyed alcohol in amounts of 0.8 g per kilo of body weight. Thereafter, the testees attached, under their upper lip, a buccal tablet that contained 100 mg of N-acetyl cysteine and that slowly released the acetyl cysteine. The salivary acetaldehyde levels were measured at intervals of 20 minutes up to 320 minutes. Throughout, the acetaldehyde contents of those using the acetyl cysteine tablets were lower than of those using the placebo.

[2] = Salivary acetaldehyde during smoking while sucking the Example 1 tablet (Example 6); settings: sucking tablet with 20 mg cysteine, one cigarette, after the first 5 minutes, two testees
Description: Two individuals tested the preparation prepared according to Example 1. The salivary acetaldehyde contents of the testees were measured before smoking and then after 5 minutes during smoking, i.e., 0 min, 5 min, 10 min, and 15 min after the testees started smoking. Each testee smoked one cigarette and, at the same time, saliva was collected from their mouths, as they sucked placebo tablets. Smoking lasted for 5 min. In another test, the testees repeated the study by sucking tablets containing 20 mg of cysteine.

[3] = Salivary acetaldehyde during smoking with L-cysteine sucking tablets, gas chromatography (Example 7); settings: for average salivary acetaldehyde content immediately after smoking: 5 min smoking
Description: Five smokers (of the age of 29±2.8) participated in the study, in which three cigarettes were smoked (with cleaning periods in between). While smoking each cigarette (in 5 minutes time), the voluntaries sucked tablets blindfold, containing a placebo, 1.25 mg, 2.5 mg, 5 mg, 10 mg or 20 mg of L-cysteine. The acetaldehyde in the saliva samples was analysed by gas chromatography after 0, 5, 10, 20 minutes from starting to smoke.

[4] = Moistened cysteine filter in cigarette holder, salivary acetaldehyde during smoking (Example 9); settings: filter and cysteine in solid form (not moistened)
From the text: The entire filter of Marlboro Red was removed or, in some tests, a 2-3 mm piece of the original filter was left in the cigarette.
In the tests, the ready commercial cigarette holders/mouthpieces of Denicotea, www.denicotea.de, were used. In the cigarette holders/mouthpieces, plastic cylinder-shaped “containers” were used, in which the filter material was packed. The original content (intended for the removal of nicotine) of the containers was removed and replaced with the material that was used in the study. The outer dimensions of the container were: diameter 8 mm and length 35 mm.
Cellulose wadding (c. 100 mg), filter paper (Whattman),
Cysteine was dissolved in distilled water, 30-180 mg of L-Cysteine/1 ml. The manufacturer: Fluka, 30089.
[…] After this, the testees smoked the cigarettes that had been placed in the mouthpieces. During smoking, saliva samples were collected from those participating in the tests and the acetaldehyde in the saliva was analyzed by gas chromatography, Perkin-Elmer, HS40, headspace Gas Chromatograph.

CC(=O)N[C@@H](CS)C(=O)O [N-acetyl cysteine]
salivary acetaldehyde contents compared with placebo [1]: lower

N[C@@H](CS)C(=O)O [L-cysteine]
salivary acetaldehyde content [2]: non-measurable level | reduction of amount of acetaldehyde compared with placebo ([3]; 1.25 mg tablet): about two thirds | average salivary acetaldehyde content immediately after smoking ([3]; 5 mg L-cysteine sucking tablet): 0 µM | inactivation of carcinogenic acetaldehyde in saliva during smoking ([3]; 5 mg, delivered with a melting tablet): completely inactivated | average salivary acetaldehyde content immediately after smoking ([3]; 10 mg L-cysteine sucking tablet): 0 µM | average salivary acetaldehyde content immediately after smoking ([3]; 20 mg L-cysteine sucking tablet): 0 µM | removal from saliva of acetaldehyde originating from tobacco ([3]; tablets of 5 mg, 10 and 20 mg, FIG. 4): all of the acetaldehyde | filtering of acetaldehyde [4]: do not filter the acetaldehyde
